Test results: patent US10767162B2, “Methods for differentiation” (PRESIDENT AND FELLOWS OF HARVARD COLLEGE, priority 2014, dated 2020)

System: ES cell line that constitutively over-expressed the transcription factor MyoD
Type: cell-based
Conditions: for effect on Pax3 expression: continuous treatment during differentiation; for effect on MyoG (myogenin) expression: continuous treatment for 7 days, high or low serum; for effect on MyoG (myogenin) expression / effect on MyoG expression under low serum conditions: MyoG measured on Day 7; for effect on MyoG expression under low serum conditions: low serum (2% HS+Insulin)
Method: Time courses of differentiation were run for 7 days similarly to the previous growth factor withdrawal experiments. MyoD was induced at Day −1, and LIF was removed at Day 0. Cells were kept in either high serum (15% FBS) or low serum (2% HS+Insulin) media throughout the time course. Drug treatments were applied continuously at the designated concentrations for the entire duration of the time course, with daily media change. mRNA expression levels were measured by qRT-PCR. […] All measurements are relative to a DMSO control for the specific condition (i.e. low serum values are still higher than in high serum). L=lethal; drug had strong anti-survival effects so no data was collected. Error bars indicate S.E.M. (n=2).
Perturbations were made both under high and low serum conditions and were extended throughout the time course of differentiation. LY294002 is a potent broad inhibitor of phosphoinositide-3-kinases (PI3Ks), and when applied continuously to ES cells over 7 days induced a significant 2.7 fold increase in Pax3 mRNA expression (FIG. 4). This increase was observed both in high serum and low serum media. […] Myc drives cell cycle progression and growth. […] Both are indirect inhibitors of Myc activity; as yet there are no direct pharmacologic inhibitors of the Myc protein.
The effects of inhibiting cyclin-dependent kinases (kinases that are more centrally involved in cell cycle control) and MAP kinase, which very often is involved in cell cycle regulation, were also examined. Roscovitine is a broad CDK inhibitor that blocks a number of family members, including CDK1, CDK2, and CDK5. After continuous treatment throughout the 7 days of differentiation in the time course, roscovitine had no effect on Pax3 expression (FIG. 4). It also had little effect on the later expression of MyoG, either under high or low serum conditions. […] However, the MAPK inhibitor PD98059, which blocks MEK1/2, had no effect on Pax3 and induced MyoG only under low serum conditions (FIG. 4 bottom). The protein CDK inhibitor p21, which is much more specific than roscovitine, blocks CDK2 and prevents entry into S-phase. In ES cells p21 is expressed at low levels, but gradually increases during the course of ES cell differentiation (13). An mES cell line that constitutively overexpresses the p21 protein bicistronically with a mCherry tag (fused to the C-terminus with a 2A peptide) was developed. […] Thus, within the set of cell cycle inhibitors examined, stage-specific and condition-specific effects on gene expression were observed.
ES culture and differentiation. The ES cells contain MyoD (and associated puromycin resistance marker) expressed from a EF1alpha promoter (5). MyoD could be expressed once a loxP segment inserted between the promoter and transgene was excised by a cre recombinase fused to the estrogen receptor. ES cells were cultured in LIF and standard conditions containing 15% FBS, non-essential amino acids, L-glutamine, penicillin/streptomycin, and beta-mercaptoethanol. To induce MyoD, cells were treated for 24 hrs with 1 μM 4OHT (Sigma) in ES media. Reduced serum media consisted of DMEM and 2% horse serum (Invitrogen) plus 10 μg/ml insulin (to maintain cell survival)(Sigma) with sodium pyruvate and penicillin/streptomycin. During differentiation, cells were treated with 1 μg/ml puromycin continuously to select for cells which maintained MyoD expression. N2B27 components/supplements and Knock-out serum replacement were purchased from Invitrogen. LIF was used at a 1000 U/ml and Bmp4 at 10 ng/ml.
Drugs. The PI3K inhibitor LY294002, Roscovitine, the MEK1/2 inhibitor PD98059, and 10058-F4 were purchased from Sigma. The E2F inhibitor HLM006474 was purchased from Millipore. PD0332991 was purchased from SelleckChem. JQ1 was purchased from ApexBio.
RNA isolation and RT-PCR. RNA was isolated using RNAeasy plus kit (Qiagen). Reverse transcription was performed using iScript™ cDNA synthesis (Bio-rad). […]

[1] = Pax3 measured on Day 3, relative to DMSO control

| Molecule | effect on Pax3 expression [1] | effect on MyoG (myogenin) expression | cell survival on continuing treatment | increase in Pax3 mRNA expression (applied continuously over 7 days, observed both in high serum and low serum media, relative to DMSO control, Pax3 measured on Day 3) | effect on MyoG expression under low serum conditions |
| --- | --- | --- | --- | --- | --- |
| CC[C@H](CO)Nc1nc(NCc2ccccc2)c2ncn(C(C)C)c2n1 [roscovitine, Roscovitine] | no effect | little effect |  |  |  |
| Cc1sc2c(c1C)C(c1ccc(Cl)cc1)=N[C@@H](CC(=O)OC(C)(C)C)c1nnc(C)n1-2 [JQ1] | an increase in Pax3 early expression | later suppression of MyoG expression |  |  |  |
| CCc1ccc(/C=C2/SC(=S)NC2=O)cc1 [10058-F4] | suppressive effects | suppressive effects |  |  |  |
| O=c1cc(N2CCOCC2)oc2c(-c3ccccc3)cccc12 [LY294002] |  |  | cell death | 2.7 fold |  |
| COc1cccc(-c2cc(=O)c3ccccc3o2)c1N [PD98059] | no effect |  |  |  | induced MyoG |
| CCOc1ccc(C(Nc2ccccn2)c2ccc3ccc(C)nc3c2O)cc1C (stereo not shown) [HLM006474] | induced Pax3 | suppressed MyoG expression |  |  |  |
| CC(=O)c1c(C)c2cnc(Nc3ccc(N4CCNCC4)cn3)nc2n(C2CCCC2)c1=O [PD0332991] | lack of effect | lack of effect |  |  |  |
| p21: protein CDK inhibitor, blocks CDK2; constitutively overexpressed in an mES cell line with a mCherry tag (protein, UniProt P39689 2-159, looked up, mCherry tag) Cyclin-dependent kinase …: SNPGDVRPVPHRSKVCRCLFGPVDSEQLRRDCDALMAGCLQEARERWNFDFVTETPLEGNFVWERVRSLGLPKVYLSPGSRSRDDLGGDKRPSTSSALLQGPAPEDHVALSLSCTLVSERPEDSPGGPGTSQGRKRRQTSLTDFYHSKRRLVFCKRKP | no effect |  |  |  | upregulated MyoG |
